Patent US20260108572A1, “ALZHEIMER-TYPE DEMENTIA SUPPRESSANT, AND METHOD FOR PRODUCING SAME” (Sakamoto Yakusouen, LLC, priority 2022, published 2026)

Assays:
[1] = test system: senescence-accelerated model mouse SAM-P8; test: Genome expression (RNA sequencing, PCA) in the whole brain of senescence-accelerated model mice after oral administration; type: in vivo; conditions: oral 7 days: donepezil 5 mg/kg, acteoside 100 mg/kg, SSa extract powder 500 mg/kg, brain after 30 days
Protocol: Seven-week-old male normal aged mouse SAM-R and male senescence-accelerated model mouse SAM-P8 that were respectively obtained from Japan SLC were arbitrarily divided into two groups of 10 mice each and acclimatized for 1 week. Then, 500 mg/kg of SSa extract powder was orally administered to SAM-R SSa extract powder-administered group and SAM-P8 SSa extract powder-administered group for 7 days. Each group of mice other than the above groups was given normal feed and water freely. Next, after the mice were reared for 30 days, the mice were humanely killed by anesthesia. The whole brain was taken out and preserved at −80° C. by the genome analysis.
Next, chloroform (0.2 mL) was added thereto, and the mixture was stirred well for 15 seconds and then stood still for 2 to 3 minutes. […]
The specific mRNA was concentrated from the obtained total RNA using an RNA sample preparation kit (“TruSeq Standard mRNA Library Prep kit” manufactured by Illumina). […] Then, the sequences of the cDNA library were determined using a next-generation DNA sequencer (“NoVaSeq6000” manufactured by Illumina) in the conditions of 100 bp, Paired-end and 40,000,000 read per 1 sample.
STAR>cufflinks>cuffdif analysis was carried out to compare the analysis results. GRCm38.92 was used as a mouse genome database, and the gene expression amount in gene level and in exon level as the component element of the gene was analyzed. […]

[2] = molecular target: T1, Aβ derived from human (Human, 1-42) (Homo sapiens, UniProt P05067); test: Aβ accumulation inhibitory activity using Thioflavin-T; type: biochemical; conditions: pure compounds, similarly to Example 5(1); Aβ 25 μM, 24 hours
T1 construct: Aβ derived from human (“Human, 1-42” manufactured by Peptide Institute); purchased Peptide Institute
Protocol: The Aβ accumulation inhibitory activities of each fraction were determined using Thioflavin-T in the following condition. Aβ derived from human (“Human, 1-42” manufactured by Peptide Institute) was dissolved in 0.1% ammonia water in a concentration of 250 μM. Each of the fraction samples was added to a phosphate buffer (0.05 M sodium phosphate+0.1 M sodium chloride, pH7.4) (hereinafter abbreviated as “PBS”) in the final concentrations of 0.01 g/L, 0.05 g/L and 0.1 g/L. The Aβ solution was added thereto in the final concentration of 25 μM for the reaction at 37° C. A part of the reaction mixture was collected 0, 4, 8 and 24 hours after the start of the reaction, and 2.5 μL of the collected reaction mixture was added to each well of a 96 well plate for fluorescence measurement (“Nunc FluoroNunc plate” manufactured by Thermo Fisher Science). Then, Thioflavin-T solution was dissolved in 50 mM glycine-sodium hydroxide buffer (pH 8.5), and the solution (250 μL) was added to each well. The fluorescence intensity emitted when the B sheet of the Aβ fiber was labeled with Thioflavin-T was measured. The fluorescence intensity was measured using a microplate reader (“Wallac 1420 ARVO MX” manufactured by Perkin Elmer) in the condition of a wavelength of Excitation: 420 nm and Emission: 485 nm.

[3] = molecular target: T2, human islet amyloid polypeptide (hIAPP) (Homo sapiens, UniProt P10997); test: hIAPP accumulation inhibitory activity using Thioflavin-T; type: biochemical; conditions: compounds at 1, 10, 100 μM in PBS pH7.4
T2 construct: hIAPP manufactured by Karebay Biochem was used in place of Aβ; purchased Karebay Biochem
T2 sequence (P10997 34-70 limits assumed): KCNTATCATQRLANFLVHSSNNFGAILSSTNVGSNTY

T1 sequence (P05067 672-713 limits assumed): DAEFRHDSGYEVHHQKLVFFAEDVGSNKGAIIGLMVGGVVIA

Row | IC50 [2] | IC50 [3] | SMILES | Difference of expression pattern from the control group on PC1 axis (PCA, gene and exon level) [1]
1 | 13 µM | 21 µM | C[C@@H]1O[C@@H](O[C@@H]2[C@@H](O)[C@H](OCCc3ccc(O)c(O)c3)O[C@H](CO)[C@H]2OC(=O)/C=C/c2ccc(O)c(O)c2)[C@H](O)[C@H](O)[C@H]1O [Acteoside, acteoside] | not a large difference
2 | 2.8 µM | 4.2 µM | COc1cc2oc(-c3ccc(O)c(O)c3)cc(=O)c2c(O)c1O[C@@H]1O[C@H](CO)[C@@H](O)[C@H](O)[C@H]1O [Pedaliin, pedaliin] | 
